From ChEMBL document CHEMBL1155095, “Synthesis and cytotoxicity of aurilide analogs” (Bioorg Med Chem Lett, 2008)
Converted amounts (≈) assume the structure as drawn.

test system: HeLa; assay: Cytotoxicity against human HeLa S3 cells; type: functional, cell-based

SMILES	IC50
CC/C=C(\C)[C@H]1OC(=O)[C@H](C)N(C)C(=O)[C@@H](C(C)C)NC(=O)CN(C)C(=O)[C@@H](CC(C)C)N(C)C(=O)[C@H](C(C)C)NC(=O)[C@@H]([C@@H](C)CC)OC(=O)/C(C)=C/C[C@H](O)[C@@H]1C	> 4 µg/mL
CC/C=C(\C)[C@H]1OC(=O)[C@H](C)N(C)C(=O)[C@H](C(C)C)NC(=O)CN(C)C(=O)[C@@H](CC(C)C)N(C)C(=O)[C@H](CCCCNC(=O)OC(C)(C)C)NC(=O)[C@@H]([C@@H](C)CC)OC(=O)/C(C)=C/C[C@H](O)[C@@H]1C	0.032 µg/mL (≈ 0.0332 µM)
CC/C=C(\C)[C@H]1OC(=O)[C@H](C)N(C)C(=O)[C@H](C(C)C)NC(=O)CN(C)C(=O)[C@@H](CC(C)C)N(C)C(=O)[C@H](C(C)C)NC(=O)[C@@H]([C@@H](C)CC)OC(=O)/C(C)=C/C[C@H](OC(=O)CCCCCNC(=O)OCC2c3ccccc3-c3ccccc32)[C@@H]1C	0.42 µg/mL (≈ 0.359 µM)
CC/C=C(\C)[C@H]1OC(=O)[C@H](C)N(C)C(=O)[C@H](CCCCNC(=O)OC(C)(C)C)NC(=O)CN(C)C(=O)[C@@H](CC(C)C)N(C)C(=O)[C@H](C(C)C)NC(=O)[C@@H]([C@@H](C)CC)OC(=O)/C(C)=C/C[C@H](O)[C@@H]1C	0.26 µg/mL (≈ 0.27 µM)
CC/C=C(\C)[C@H]1OC(=O)[C@H](CCCCNC(=O)OC(C)(C)C)N(C)C(=O)[C@H](C(C)C)NC(=O)CN(C)C(=O)[C@@H](CC(C)C)N(C)C(=O)[C@H](C(C)C)NC(=O)[C@@H]([C@@H](C)CC)OC(=O)/C(C)=C/C[C@H](O)[C@@H]1C	0.02 µg/mL (≈ 0.0202 µM)
CC/C=C(\C)[C@H]1OC(=O)[C@H](C)N(C)C(=O)[C@H](C(C)C)NC(=O)CN(C)C(=O)[C@@H](CC(C)C)N(C)C(=O)[C@H](C(C)C)NC(=O)[C@@H]([C@@H](C)CC)OC(=O)/C(C)=C/C[C@H](OC(=O)CCCCCNC(=O)CCC(=O)O)[C@@H]1C	0.14 µg/mL (≈ 0.134 µM)
CC/C=C(\C)[C@H]1OC(=O)[C@H](C)N(C)C(=O)[C@@H](C(C)C)NC(=O)CN(C)C(=O)[C@@H](CC(C)C)N(C)C(=O)[C@H](C(C)C)NC(=O)[C@@H]([C@@H](C)CC)OC(=O)/C(C)=C/C[C@H](OC(=O)CCCCCNC(=O)CCC(=O)O)[C@@H]1C	> 10 µg/mL
CC/C=C(\C)[C@H]1OC(=O)[C@H](C)N(C)C(=O)[C@H](C(C)C)NC(=O)CN(C)C(=O)[C@@H](CC(C)C)N(C)C(=O)[C@H](C(C)C)NC(=O)[C@@H]([C@@H](C)CC)OC(=O)/C(C)=C/C[C@H](O)[C@@H]1C [AURILIDE]	0.0024 µg/mL (≈ 0.00288 µM)
CC/C=C(\C)[C@H]1OC(=O)[C@H](C)N(C)C(=O)[C@H](C(C)C)NC(=O)CN(C)C(=O)[C@@H](CC(C)C)N(C)C(=O)[C@H](C(C)C)NC(=O)[C@@H]([C@@H](C)CC)OC(=O)/C(C)=C/CC[C@@H]1C [DEOXYAURILIDE]	0.017 µg/mL (≈ 0.0208 µM)
